In one test the target is T1, PDGFRβ (Homo sapiens, UniProt P09619).
T1 construct: expressed in transfected cells; host or cells: porcine aorta endothelial (PAE) cells
Put plainly: PAE-PDGFRβ phosphorylation in PAE-PDGFRB cells assay. The class given is cell-based. To be noted: PAE cells overexpressing human PDGFRβ, PDGF-BB stimulated; read-out: PAE PDGFR autophos IC50. The method in brief: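 PAE cells overexpressing human PDGFRβ, serum-starved 16 h (0.1% FBS), compound 1 h at 37° C (0.5% DMSO), then 1 μg/mL PDGF-BB with 2 mM Na3VO4 for 8 min. Receptor captured by anti-PDGFRβ, phosphotyrosine detected by HRP-PY20/TMB at 450 nm; IC50 by four-parameter fit.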

Test [1] deals with human umbilical vein endothelial cells (HUVEC). Description: HUVEC+VEGF proliferation assay. To be noted: VEGF 6 ng/mL, MTT. In kind it is cell-based. The method in brief: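 HUVEC (passage 3-4), serum-starved 24 h in F12K + 1% FBS, were pre-treated with compound for 1 h (0.1% DMSO final). They were then stimulated with VEGF at 6 ng/mL final. Proliferation was measured after 72 h by MTT dye reduction (4 h), with absorbance read at 595 nm.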

Another test relates to HUVEC. Description: bFGF HUVEC proliferation. The class given is cell-based, human. To be noted: bFGF stimulated HUVEC.
The target of test [2] is T2, unphosphorylated VEGF-R2Δ50 (FLVK) (Homo sapiens, UniProt P35968, DEL940-989/E990V).
T2 construct: VEGF-R2Δ50 contains residues 806-939 and 990-1171; made in house; host or cells: baculovirus/insect cell system
Description: VEGF-R2 coupled spectrophotometric assay, unphosphorylated construct (FLVK). The class given is biochemical. To be noted: for inhibition at 0.05 µM: percent inhibition at 50 nM. The method in brief:
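Human VEGF-R2Δ50 cytosolic kinase (residues 806-939/990-1171, E990V), baculovirus-expressed, unphosphorylated form. PK/LDH-coupled NADH oxidation at 340 nm with 20 mM poly(E4Y1), 3 mM ATP, 60 mM MgCl2, 2 mM MnCl2, 200 mM HEPES pH 7.5, 5-40 nM enzyme; Ki fitted by Morrison equation.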

Another test has as its target T3, KDR (VEGFR2) (Homo sapiens, UniProt P35968).
T3 construct: expressed in transfected cells; host or cells: porcine aorta endothelial (PAE) cells
Description: KDR (VEGFR2) phosphorylation in PAE-KDR cells assay. In kind it is cell-based. To be noted: PAE cells overexpressing human KDR, VEGF stimulated; read-out: PAE KDR autophos IC50. The protocol: This assay determines the ability of a test compound to inhibit the autophosphorylation of KDR in porcine aorta endothelial (PAE)-KDR cells. PAE cells that overexpress human KDR were used in this assay. The cells were cultured in Ham's F12 media supplemented with 10% fetal bovine serum (FBS) and 400 ug/mL G418. Thirty thousands cells were seeded into each well of a 96-well plate in 75 μL of growth media and allowed to attach for 6 hours at 37° C. Cells were then exposed to the starvation media (Ham's F12 media supplemented with 0.1% FBS) for 16 hours. After the starvation period was over, 10 μL of test agent in 5% DMSO in starvation media were added to the test wells and 10 μL of the vehicle (5% DMSO in starvation media) were added into the control wells. The final DMSO concentration in each well was 0.5%. Plates were incubated at 37° C. for 1 hour and the cells were then stimulated with 500 ng/ml VEGF (commercially available from R & D System) in the presence of 2 mM Na3VO4 for 8 minutes. The cells were washed once with 1 mm Na3VO4 in HBSS and lysed by adding 50 μL per well of lysis buffer. One hundred μL of dilution buffer were then added to each well and the diluted cell lysate was transferred to a 96-well goat ant-rabbit coated plate (commercially available from Pierce) which was pre-coated with Rabbit anti Human Anti-flk-1 C-20 antibody (commercially available from Santa Cruz). The plates were incubated at room temperature for 2 hours and washed seven times with 1% Tween 20 in PBS. HRP-PY20 (commercially available from Santa Cruz) was diluted and added to the plate for a 30-minute incubation. Plates were then washed again and TMB peroxidase substrate (commercially available from Kirkegaard & Perry) was added for a 10-minute incubation. One hundred μL of 0.09 N H2SO4 was added to each well of the 96-well plates to stop the reaction. Phosphorylation status was assessed by spectrophotometer reading at 450 nm. IC50 values were calculated by curve fitting using a four-parameter analysis.

Values joined by “and” are separate entries in the source; they are usually repeats but may differ in a detail not shown here. Equal entries are not always repeated. Where only a bound is given, the exact number is not on record here.

T1 sequence (P09619 33-1106): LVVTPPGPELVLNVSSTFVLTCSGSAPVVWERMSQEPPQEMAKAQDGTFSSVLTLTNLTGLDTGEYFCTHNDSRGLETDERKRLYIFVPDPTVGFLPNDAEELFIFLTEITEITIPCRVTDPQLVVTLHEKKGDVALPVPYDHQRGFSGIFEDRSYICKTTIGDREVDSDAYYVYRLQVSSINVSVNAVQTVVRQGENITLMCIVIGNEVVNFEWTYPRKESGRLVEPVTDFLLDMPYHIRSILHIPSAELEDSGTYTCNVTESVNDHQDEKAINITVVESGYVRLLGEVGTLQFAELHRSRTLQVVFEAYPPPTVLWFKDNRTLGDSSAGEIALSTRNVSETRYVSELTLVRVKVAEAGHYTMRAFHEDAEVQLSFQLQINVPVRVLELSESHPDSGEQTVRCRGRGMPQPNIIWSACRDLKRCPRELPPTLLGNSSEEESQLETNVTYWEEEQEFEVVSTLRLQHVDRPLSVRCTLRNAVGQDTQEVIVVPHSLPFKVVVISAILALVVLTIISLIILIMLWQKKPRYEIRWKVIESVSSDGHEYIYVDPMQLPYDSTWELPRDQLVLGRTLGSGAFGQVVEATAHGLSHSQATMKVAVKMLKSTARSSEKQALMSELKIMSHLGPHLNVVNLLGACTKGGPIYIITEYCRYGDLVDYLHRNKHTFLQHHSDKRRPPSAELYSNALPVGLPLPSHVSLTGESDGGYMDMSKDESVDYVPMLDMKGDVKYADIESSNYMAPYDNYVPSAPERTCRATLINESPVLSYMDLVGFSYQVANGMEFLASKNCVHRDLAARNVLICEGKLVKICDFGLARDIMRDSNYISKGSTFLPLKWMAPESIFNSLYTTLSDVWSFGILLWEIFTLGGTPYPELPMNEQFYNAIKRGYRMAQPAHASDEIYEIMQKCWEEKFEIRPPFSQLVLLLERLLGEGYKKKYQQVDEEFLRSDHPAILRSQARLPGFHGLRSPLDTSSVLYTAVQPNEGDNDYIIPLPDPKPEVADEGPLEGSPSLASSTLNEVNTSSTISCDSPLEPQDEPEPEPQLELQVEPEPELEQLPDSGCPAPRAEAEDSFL
T3 sequence (P35968 20-1356): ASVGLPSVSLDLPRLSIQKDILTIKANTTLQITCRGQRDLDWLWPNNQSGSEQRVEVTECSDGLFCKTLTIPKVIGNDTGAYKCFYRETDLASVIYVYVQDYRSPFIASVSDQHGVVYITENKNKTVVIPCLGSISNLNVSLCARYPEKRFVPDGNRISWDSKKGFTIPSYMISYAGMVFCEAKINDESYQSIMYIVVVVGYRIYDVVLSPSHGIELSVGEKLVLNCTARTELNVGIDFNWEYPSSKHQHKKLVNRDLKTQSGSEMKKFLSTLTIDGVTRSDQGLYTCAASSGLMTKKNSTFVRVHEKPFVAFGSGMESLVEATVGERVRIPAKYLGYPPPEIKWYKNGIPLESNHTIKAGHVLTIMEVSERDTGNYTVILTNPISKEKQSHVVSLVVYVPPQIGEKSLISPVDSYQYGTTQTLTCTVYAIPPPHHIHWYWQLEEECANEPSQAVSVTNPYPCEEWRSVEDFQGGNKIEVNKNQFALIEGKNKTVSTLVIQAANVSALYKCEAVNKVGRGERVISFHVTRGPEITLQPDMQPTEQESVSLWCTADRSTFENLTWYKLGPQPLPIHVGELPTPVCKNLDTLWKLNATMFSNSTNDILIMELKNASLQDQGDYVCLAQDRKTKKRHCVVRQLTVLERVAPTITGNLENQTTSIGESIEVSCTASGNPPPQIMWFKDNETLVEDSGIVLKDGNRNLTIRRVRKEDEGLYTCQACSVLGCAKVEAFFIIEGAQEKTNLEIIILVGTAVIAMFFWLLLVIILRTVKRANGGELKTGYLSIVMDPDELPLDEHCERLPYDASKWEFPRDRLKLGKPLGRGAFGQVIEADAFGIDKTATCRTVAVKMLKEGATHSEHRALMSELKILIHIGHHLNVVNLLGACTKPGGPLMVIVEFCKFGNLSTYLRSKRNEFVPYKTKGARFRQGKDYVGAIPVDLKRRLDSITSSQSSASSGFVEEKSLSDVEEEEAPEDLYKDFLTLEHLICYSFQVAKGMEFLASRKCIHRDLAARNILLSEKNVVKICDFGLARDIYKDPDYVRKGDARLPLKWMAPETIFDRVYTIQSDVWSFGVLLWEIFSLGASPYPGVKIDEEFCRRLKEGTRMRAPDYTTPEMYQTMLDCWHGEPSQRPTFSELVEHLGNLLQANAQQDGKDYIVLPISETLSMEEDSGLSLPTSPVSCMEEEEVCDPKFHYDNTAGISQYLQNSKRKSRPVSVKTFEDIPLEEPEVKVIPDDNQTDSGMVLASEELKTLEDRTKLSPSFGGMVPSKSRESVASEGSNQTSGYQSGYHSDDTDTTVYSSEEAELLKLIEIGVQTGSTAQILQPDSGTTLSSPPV
T2 sequence (P35968 with tags, fused parts or gaps DEL940-989/E990V limits assumed): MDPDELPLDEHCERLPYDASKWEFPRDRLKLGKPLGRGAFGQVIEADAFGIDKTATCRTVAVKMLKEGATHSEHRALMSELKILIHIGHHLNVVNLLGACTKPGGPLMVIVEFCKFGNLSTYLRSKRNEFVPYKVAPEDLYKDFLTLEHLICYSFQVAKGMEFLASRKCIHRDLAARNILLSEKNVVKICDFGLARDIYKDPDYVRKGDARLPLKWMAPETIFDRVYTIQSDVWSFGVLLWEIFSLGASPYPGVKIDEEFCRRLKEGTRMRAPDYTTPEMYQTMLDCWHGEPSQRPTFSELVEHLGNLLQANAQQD

As to “5-[2-(3S-Methoxy-pyrrolidine-1-carbonyl)-thieno[3,2-b]pyridin-7-ylamino]-2-methyl-2,3-dihydro-indole-1-carboxylic acid methylamide [Example 1u]”, the IC50 on PDGFRβ is over 100 nM; in test [1] (72 hours) it was over 10 nM; with HUVEC it was 4840 nM.

Take `CNC(=O)n1c(C)cc2cc(Nc3ccnc4cc(C(=O)N5CC[C@H](O)C5)sc34)ccc21` [Example 1i, 5-[2-(3S-Hydroxy-pyrrolidine-1-carbonyl)-thieno[3,2-b]pyridin-7-ylamino]-2-methyl-indole-1-carboxylic acid methylamide]: the IC50 on PDGFRβ is about 1000 nM; in test [1] (Homo sapiens, HUVEC, 72 h), 1.03 nM; in the test with HUVEC (Homo sapiens, HUVEC), 44.2 nM. Also, the affinity in test [2], expressed as Ki, was 0.69 nM. At 0.05 µM the inhibition in test [2] was 93%.

Consider `CNC(=O)n1c(C)cc2cc(Oc3ccnc4cc(C(=O)N(C)CCO)sc34)ccc21` [Example 3n, 7-(2-Methyl-1-methylcarbamoyl-1H-indol-5-yloxy)-thieno[3,2-b]pyridine-2-carboxylic acid (2-hydroxy-ethyl)-methyl-amide], for which the IC50 was found to be 76.3 nM at PDGFRβ; 0.267 nM in test [1] (Homo sapiens, HUVEC, 72 h); 87 nM in the test on HUVEC (Homo sapiens, HUVEC). In test [2], the Ki stood at 0.505 nM. Testing at 0.05 µM in test [2] gave an inhibition of 88%.

With `CNC(=O)n1c(C)cc2cc(Oc3ccnc4cc(C(=O)N5CC(F)(F)C[C@H]5CO)sc34)ccc21` [Example 3p, 5-[2-(4,4-Difluoro-2-hydroxymethyl-pyrrolidine-1-carbonyl)-thieno[3,2-b]pyridin-7-yloxy]-2-methyl-indole-1-carboxylic acid methyl-amide], the IC50 at PDGFRβ is 212 nM; in test [1] (Homo sapiens, HUVEC, 72 h), 0.33 nM; with HUVEC (Homo sapiens, HUVEC), 227 nM. In test [2], the affinity corresponds to a Ki of 0.98 nM. Moreover, testing at 0.05 µM in test [2] gave an inhibition of 81%.

As for `CO[C@@H]1CCN(C(=O)c2cc3nccc(Oc4ccc5c(c4)cc(C)n5C(=O)NC4CC4)c3s2)C1` [Example 4k, 5-[2-(3R-Methoxy-pyrrolidine-1-carbonyl)-thieno[3,2-b]pyridin-7-yloxy]-2-methyl-indole-1-carboxylic acid cyclopropylamide], the IC50 at PDGFRβ amounted to 10 nM; at KDR (VEGFR2), 0.569 nM; in the test with HUVEC (Homo sapiens, HUVEC), 5.8 nM. Besides, the affinity in test [2], expressed as Ki, was 0.1 nM. In addition, in test [2], the inhibition at 0.05 µM turned out to be 96%.

For the compound `COC[C@@H]1CCCN1C(=O)c1cc2nccc(Oc3ccc4c(cc(C)n4C(=O)NC4CC4)c3F)c2s1` [Example 5b], the IC50 turned out to be 13.1 nM at PDGFRβ; 0.5 nM at KDR (VEGFR2); 13.6 nM in the test with HUVEC (Homo sapiens, HUVEC). This compound also showed a Ki in test [2] of 0.504 nM. Besides, the inhibition at 0.05 µM in test [2] came out at 98%.

Turning to `CNC(=O)n1c(C)cc2cc(Oc3ccnc4cc(C(=O)N5CC[C@@H](N(C)C)C5)sc34)ccc21` [Example 8g, 5-[(2-{[(3R)-3-(Dimethylamino)pyrrolidin-1-yl]carbonyl}thieno[3,2-b]pyridin-7-yl)oxy]-N,2-dimethyl-1H-indole-1-carboxamide], the IC50 turned out to be 15.4 nM at PDGFRβ; 0.15 nM in test [1] (Homo sapiens, HUVEC, 72 h); 9 nM in the test with HUVEC (Homo sapiens, HUVEC). In addition, the affinity in test [2] corresponds to a Ki of 0.643 nM. In test [2], this compound gave an inhibition at 0.05 µM of 99%.

`Cc1cc2cc(Oc3ccnc4cc(C(=O)N5CC[C@@H](N(C)C)C5)sc34)ccc2n1C(=O)NCCO` [Example 8l, 5-[(2-{[(3R)-3-(Dimethylamino)pyrrolidin-1-yl]carbonyl}thieno[3,2-b]pyridin-7-yl)oxy]-N-(2-hydroxyethyl)-2-methyl-1H-indole-1-carboxamide]: the IC50 turned out to be 18.8 nM on PDGFRβ; 1.5 nM in test [1] (Homo sapiens, HUVEC, 72 h); 63 nM in the test with HUVEC (Homo sapiens, HUVEC). Besides, the inhibitory constant (Ki) in test [2] turned out to be 0.88 nM. For the same compound, the inhibition at 0.05 µM in test [2] was 88%.

With `C#CCNC(=O)n1c(C)cc2cc(Oc3ccnc4cc(C(=O)N5CCC[C@@H]5COC)sc34)ccc21` [Example 8p, 5-[2-(2R-Methoxymethyl-pyrrolidine-1-carbonyl)-thieno[3,2-b]pyridin-7-yloxy]-2-methyl-indole-1-carboxylic acid prop-2-ynylamide], the IC50 came out at 13 nM at PDGFRβ; 0.137 nM in test [1] (Homo sapiens, HUVEC, 72 h); 197 nM with HUVEC (Homo sapiens, HUVEC). This compound also showed an inhibition constant (Ki) in test [2] of 0.143 nM. Further, 0.05 µM produced 98% inhibition in test [2].

Take `CCCNC(=O)n1c(C)cc2cc(Oc3ccnc4cc(C(=O)N5CC[C@H](OC)C5)sc34)ccc21` [Example 9d, 5-[2-(3S-Methoxy-pyrrolidine-1-carbonyl)-thieno[3,2-b]pyridin-7-yloxy]-2-methyl-indole-1-carboxylic acid propylamide]: the IC50 was 25 nM at PDGFRβ; 1.47 nM on KDR (VEGFR2); 143 nM in the test with HUVEC (Homo sapiens, HUVEC). This compound yielded a Ki in test [2] of 0.228 nM. This compound also had an inhibition at 0.05 µM in test [2] of 99%.

With `C#CCNC(=O)n1c(C)cc2cc(Oc3ccnc4cc(C(=O)N5CC[C@H](O)C5)sc34)ccc21` [Example 9j, 5-[2-(3S-Hydroxy-pyrrolidine-1-carbonyl)-thieno[3,2-b]pyridin-7-yloxy]-2-methyl-indole-1-carboxylic acid prop-2-ynylamide], the IC50 on PDGFRβ is 18 nM and 20 nM; in test [1] (Homo sapiens, HUVEC, 72 h), 0.29 nM; in the test with HUVEC (Homo sapiens, HUVEC), 81 nM. In test [2], this compound came in with a Ki of 0.162 nM. Besides, the inhibition at 0.05 µM in test [2] came out at 97%.

On to `CCC(=O)n1c(C)cc2cc(Oc3ccnc4cc(C(=O)N5CC[C@H](OC)C5)sc34)ccc21` [Example 10a, 2-{[(3S)-3-Methoxypyrrolidin-1-yl]carbonyl}-7-[(2-methyl-1-propionyl-1H-indol-5-yl)oxy]thieno[3,2-b]pyridine], for which the IC50 in test [1] (Homo sapiens, HUVEC, 72 h) was 0.79 nM; at KDR (VEGFR2) it was 1.2 nM; in the test on HUVEC (Homo sapiens, HUVEC), 21 nM. The compound also showed a Ki in test [2] of 4.7 nM. In test [2], this compound displayed an inhibition at 0.05 µM of 64%.

Turning to `CNC(=O)n1ccc2cc(Oc3ccnc4cc(-c5nc(C(C)(C)O)cs5)sc34)ccc21` [Example 31, 5-{2-[4-(1-Hydroxy-1-methyl-ethyl)-thiazol-2-yl]-thieno[3,2-b]pyridin-7-yloxy}-indole-1-carboxylic acid methylamide], the IC50 is 8.1 nM and 6.3 nM on PDGFRβ; 0.16 nM in test [1] (Homo sapiens, HUVEC, 72 h); 101 nM in the test with HUVEC (Homo sapiens, HUVEC). Besides, the Ki in test [2] was 0.462 nM. The same compound gave an inhibition at 0.05 µM in test [2] of 97%.

One may read the IC50 as the concentration that inhibits the measured activity by half. As a reminder, the Ki is a measure of affinity in units of concentration, obtained from inhibition or displacement. As usually defined, the inhibition is the share of the control response that was lost under treatment.

The record behind these values is patent publication US6833456B2, “Indolyl-urea derivatives of thienopyridines useful as antiangiogenic agents, and methods for their use” (Agouron Pharmaceuticals, Inc., priority 2002, dated 2004).
